Experimental data as given in the supplement of paper PMC5908809.

Columns and labels:
[1] = system: normal primary NK cells, pool 3 (3 donors) (IL-2 2.5 ng/mL); test: percent inhibition of viability; higher = more inhibition; settings: 72 h
YT (IL-2 2.5 ng/mL) [2] = test: as above; settings: 72 h
NK-YS (IL-2 2.5 ng/mL) [3] = test: as above; settings: 72 h
KHYG-1 (IL-2 2.5 ng/mL) [4] = test: as above; settings: 72 h
[5] = system: normal primary NK cells, pool 1 (3 donors), resting (IL-2 0 ng/mL); test: as above; settings: 72 h
KAI3 (IL-2 2.5 ng/mL) [6] = test: as above; settings: 72 h
NK-92 (IL-2 2.5 ng/mL) [7] = test: as above; settings: 72 h
NKL (IL-2 2.5 ng/mL) [8] = test: as above; settings: 72 h
[9] = system: normal primary NK cells, pool 2 (3 donors) (IL-2 2.5 ng/mL); test: as above; settings: 72 h
DERL-7 (IL-2 2.5 ng/mL) [10] = test: as above; settings: 72 h
SNK-6 (IL-2 2.5 ng/mL) [11] = test: as above; settings: 72 h
[12] = system: normal primary NK cells, pool 1 (3 donors) (IL-2 2.5 ng/mL); test: as above; settings: 72 h
IMC-1 (IL-2 20 ng/mL) [13] = test: as above; settings: 72 h
[14] = system: normal NK cells expanded with K562-aAPC; test: drug sensitivity score (DSS) (DSS units); higher = more sensitive; extreme values may be limits of the assay; settings: 72 h; IL-2 2.5 ng/mL
Procedure: (§1)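 Drug sensitivity and resistance testing on K562-aAPC-expanded normal NK cells: 5 concentrations (10-fold steps over a 10,000-fold range), 72 h at 37 °C, viability by CellTiter-Glo normalised to DMSO and benzethonium chloride controls; DSS from the fitted curve.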

[15] = system: normal primary NK cells, pool 3 (3 donors) (IL-2 2.5 ng/mL); test: as above; settings: 72 h
YT (IL-2 2.5 ng/mL) [16] = test: as above; settings: 72 h
NK-YS (IL-2 2.5 ng/mL) [17] = test: as above; settings: 72 h
KHYG-1 (IL-2 2.5 ng/mL) [18] = test: as above; settings: 72 h
[19] = system: normal primary NK cells, pool 1 (3 donors), resting (IL-2 0 ng/mL); test: as above; settings: 72 h
KAI3 (IL-2 2.5 ng/mL) [20] = test: as above; settings: 72 h
NK-92 (IL-2 2.5 ng/mL) [21] = test: as above; settings: 72 h
NKL (IL-2 2.5 ng/mL) [22] = test: as above; settings: 72 h
[23] = system: normal primary NK cells, pool 2 (3 donors) (IL-2 2.5 ng/mL); test: as above; settings: 72 h
DERL-7 (IL-2 2.5 ng/mL) [24] = test: as above; settings: 72 h
SNK-6 (IL-2 2.5 ng/mL) [25] = test: as above; settings: 72 h
[26] = system: normal primary NK cells, pool 1 (3 donors) (IL-2 2.5 ng/mL); test: as above; settings: 72 h
IMC-1 (IL-2 20 ng/mL) [27] = test: as above; settings: 72 h
[28] = system: normal NK cells expanded with K562-aAPC; test: percent inhibition of viability; higher = more inhibition; settings: 72 h, IL-2 2.5 ng/mL
Procedure: as §1

CN(C[C@@H]1COCCO1)S(=O)(=O)Nc1ccc2ccc3ncc(-c4cnn(C)c4)cc3c(=O)c2c1 [MK-2461] (max concentration tested 10000 nM)
percent inhibition of viability [%]
Settings | 1 nM | 10 nM | 100 nM | 1000 nM | 10000 nM
DERL-7 (IL-2 2.5 ng/mL) [10] | -6.68 | -3.14 | -6.19 | 10.2 | 52.8
IMC-1 (IL-2 20 ng/mL) [13] | 1.71 | -0.63 | 3.27 | -5.3 | -50.1
KAI3 (IL-2 2.5 ng/mL) [6] | -1.76 | -2.96 | 7.38 | 21.6 | 44.7
KHYG-1 (IL-2 2.5 ng/mL) [4] | -0.18 | -3.51 | -0.87 | 6.75 | 44.4
NK-92 (IL-2 2.5 ng/mL) [7] | 1.01 | -5.16 | -10.7 | 7.81 | 9.19
NK-YS (IL-2 2.5 ng/mL) [3] | 0.46 | -3.34 | -0.08 | 3.95 | 33.3
NKL (IL-2 2.5 ng/mL) [8] | -3.44 | -1.59 | -12 | 8.79 | 30
SNK-6 (IL-2 2.5 ng/mL) [11] | 0.33 | -7.16 | -3.05 | -24.8 | 19.4
YT (IL-2 2.5 ng/mL) [2] | -0.04 | -0.58 | -1.61 | 0.19 | 10.3
[1] | -12.9 | -6.11 | -6.1 | -12.5 | -1.21
[5] | -17.8 | -18.1 | -32.3 | -29.1 | 26.9
[9] | -7.85 | -3.63 | -2.59 | -2.71 | 16.6
[12] | -3.44 | -9.95 | -8.02 | -7.44 | 21.8
[28] | 2.16 | -3.15 | -5.97 | -1.83 | 29.5

Settings | drug sensitivity score
DERL-7 (IL-2 2.5 ng/mL) [24] | 4.49
IMC-1 (IL-2 20 ng/mL) [27] | 0
KAI3 (IL-2 2.5 ng/mL) [20] | 4.68
KHYG-1 (IL-2 2.5 ng/mL) [18] | 3.41
NK-92 (IL-2 2.5 ng/mL) [21] | 0
NK-YS (IL-2 2.5 ng/mL) [17] | 2.18
NKL (IL-2 2.5 ng/mL) [22] | 2.56
SNK-6 (IL-2 2.5 ng/mL) [25] | 0.21
YT (IL-2 2.5 ng/mL) [16] | 0
[14] | 1.13
[15] | 0
[19] | 0.54
[23] | 0.24
[26] | 0.46

O=C(c1cccc(Cl)c1F)N1CCN(Cc2cccc(Nc3nccs3)n2)CC1 [MK-8745] (max concentration tested 2500 nM)
percent inhibition of viability [%]
Settings | 0.25 nM | 2.5 nM | 25 nM | 250 nM | 2500 nM
DERL-7 (IL-2 2.5 ng/mL) [10] | -8.45 | 2.62 | 1.62 | 22 | 83.1
IMC-1 (IL-2 20 ng/mL) [13] | -1.25 | -4.64 | -0.96 | 2.91 | 66.8
KAI3 (IL-2 2.5 ng/mL) [6] | -2.71 | 2.86 | -1.01 | 18.3 | 36.5
KHYG-1 (IL-2 2.5 ng/mL) [4] | -1.65 | -5.36 | -0.69 | 6.09 | 44.4
NK-92 (IL-2 2.5 ng/mL) [7] | -12.1 | -7.81 | -0.68 | 8.86 | 26.2
NK-YS (IL-2 2.5 ng/mL) [3] | -0.85 | -3.89 | -0.06 | 38.4 | 61.3
NKL (IL-2 2.5 ng/mL) [8] | -14.5 | -12.8 | -23.9 | 17.2 | 40.3
SNK-6 (IL-2 2.5 ng/mL) [11] | -0.59 | 0.91 | -4.8 | 47.9 | 76.6
YT (IL-2 2.5 ng/mL) [2] | -0.09 | -1.63 | -2.07 | 7.04 | 49.4
[1] | -9.39 | -6.67 | -11.6 | -9.93 | -1.62
[5] | -8.12 | -10.6 | -11.2 | 9.28 | -1.15
[9] | -9.44 | -9.06 | -12.7 | -6.66 | -1.81
[12] | -9.49 | -9.51 | -7.79 | 0.54 | -4.11
[28] | -2.18 | -4.25 | -9.82 | 1.43 | 48.4

Settings | drug sensitivity score
DERL-7 (IL-2 2.5 ng/mL) [24] | 7.96
IMC-1 (IL-2 20 ng/mL) [27] | 4.06
KAI3 (IL-2 2.5 ng/mL) [20] | 4.06
KHYG-1 (IL-2 2.5 ng/mL) [18] | 3.3
NK-92 (IL-2 2.5 ng/mL) [21] | 2.22
NK-YS (IL-2 2.5 ng/mL) [17] | 7.96
NKL (IL-2 2.5 ng/mL) [22] | 4.29
SNK-6 (IL-2 2.5 ng/mL) [25] | 9.92
YT (IL-2 2.5 ng/mL) [16] | 3.79
[14] | 2.71
[15] | 0.89
[19] | 0
[23] | 0.89
[26] | 0

CO[C@@H]1[C@H](N(C)C(=O)c2ccccc2)C[C@H]2O[C@]1(C)n1c3ccccc3c3c4c(c5c6ccccc6n2c5c31)C(=O)NC4 [Midostaurin] (max concentration tested 10000 nM)
percent inhibition of viability [%]
Settings | 1 nM | 10 nM | 100 nM | 1000 nM | 10000 nM
DERL-7 (IL-2 2.5 ng/mL) [10] | 2.78 | 1.24 | 18.5 | 93.3 | 98.4
IMC-1 (IL-2 20 ng/mL) [13] | -6.1 | -6.16 | -11.8 | 87.9 | 100
KAI3 (IL-2 2.5 ng/mL) [6] | 0.66 | 3.14 | 21.1 | 89.4 | 91.2
KHYG-1 (IL-2 2.5 ng/mL) [4] | 2.07 | -3.07 | 17 | 105 | 99.1
NK-92 (IL-2 2.5 ng/mL) [7] | 7.3 | 4.05 | 7.33 | 80.9 | 89.5
NK-YS (IL-2 2.5 ng/mL) [3] | 1.77 | 2.14 | 11.2 | 65.2 | 78.6
NKL (IL-2 2.5 ng/mL) [8] | -4.72 | -9.81 | 28.3 | 79.7 | 77.5
SNK-6 (IL-2 2.5 ng/mL) [11] | -0.77 | 8.75 | 42.7 | 95.2 | 97.3
YT (IL-2 2.5 ng/mL) [2] | 4.08 | 0.3 | 9.56 | 51.4 | 69.3
[1] | -7.31 | -6.65 | 1.51 | 63.5 | 83
[5] | -2.01 | -12 | 7.17 | 29 | 62.3
[9] | -14.8 | -10.1 | -0.23 | 76.7 | 85.8
[12] | -13 | -12.2 | 25.8 | 79.6 | 88.2
[28] | -0.81 | -0.07 | 14.2 | 93.4 | 95.7

Settings | drug sensitivity score
DERL-7 (IL-2 2.5 ng/mL) [24] | 19.5
IMC-1 (IL-2 20 ng/mL) [27] | 15.6
KAI3 (IL-2 2.5 ng/mL) [20] | 19.3
KHYG-1 (IL-2 2.5 ng/mL) [18] | 20.9
NK-92 (IL-2 2.5 ng/mL) [21] | 15.8
NK-YS (IL-2 2.5 ng/mL) [17] | 13.5
NKL (IL-2 2.5 ng/mL) [22] | 18.5
SNK-6 (IL-2 2.5 ng/mL) [25] | 22.2
YT (IL-2 2.5 ng/mL) [16] | 10.8
[14] | 19.3
[15] | 12.1
[19] | 6.7
[23] | 14
[26] | 18
